From US8741614B2, “Crystal structure of isoglutaminyl cyclase” (Probiodrug AG, priority 2010, dated 2014)

Tests used:
[1] = molecular target: human QC (Homo sapiens, UniProt Q16769); test: inhibition of human QC in vitro; format: biochemical
[2] = molecular target: mouse QC (Mus musculus, UniProt Q9CYK2); test: inhibition of mouse QC in vitro; format: biochemical
[3] = solubility in water; format: physicochemical

Chain of mouse QC (Q9CYK2 36-362): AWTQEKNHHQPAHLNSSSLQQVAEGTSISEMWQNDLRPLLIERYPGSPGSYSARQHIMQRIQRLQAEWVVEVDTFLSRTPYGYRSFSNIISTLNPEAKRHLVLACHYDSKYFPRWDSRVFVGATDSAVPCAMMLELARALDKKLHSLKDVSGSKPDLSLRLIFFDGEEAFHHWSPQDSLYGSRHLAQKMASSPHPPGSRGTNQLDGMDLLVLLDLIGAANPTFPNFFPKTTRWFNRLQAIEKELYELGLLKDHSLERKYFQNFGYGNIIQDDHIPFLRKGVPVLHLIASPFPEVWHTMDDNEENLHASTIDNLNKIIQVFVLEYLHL
Chain of human QC (Q16769 29-361): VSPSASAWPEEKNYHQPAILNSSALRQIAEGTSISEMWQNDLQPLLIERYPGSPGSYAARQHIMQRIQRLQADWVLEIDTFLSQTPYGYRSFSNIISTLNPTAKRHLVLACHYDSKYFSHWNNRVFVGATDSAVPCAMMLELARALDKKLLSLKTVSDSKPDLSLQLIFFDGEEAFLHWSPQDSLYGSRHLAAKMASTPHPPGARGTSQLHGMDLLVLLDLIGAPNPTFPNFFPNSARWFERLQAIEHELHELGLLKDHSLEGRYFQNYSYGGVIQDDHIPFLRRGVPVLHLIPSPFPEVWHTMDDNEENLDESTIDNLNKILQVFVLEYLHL

Structure (SMILES): COc1ccc(NC(=S)NCCCn2ccnc2)cc1OC [Inhibitor A, 1-(3-(1H-Imidazol-1-yl)propyl)-3-(3,4-dimethoxyphenyl)thiourea]
- inhibition of human QC [1]: inhibits
- inhibition of mouse QC [2]: inhibits
- solubility in water [3]: soluble in water
